Where no end group is shown, it is not given here.

For this series, the system named is DHD-K12 cells. To be noted: rat, in vivo. The source says: Autologous colon carcinoma DHD-K12 line cells were inoculated intra-splenically in BDIX rats. These cells metastatize at polmonar and hepatic level and naturally express the epitope common also to human colon rectal carcinoma ([…] (SEQ ID NO:4)). To evaluate the relevance of […] (SEQ ID NO:4) antigen in antigen specific cytotoxic response BDIX rats were immunized with DHD-K12.
PBMC cytotoxic activity (cytotoxicity test based on the release of ^51Cr or LDH) of BDIX rats against DHD-K12 cells was evaluated after immunization and tumor inoculum.

As for RTQKEASIC, the “PBMC cytotoxic activity after tumor inoculum, pre-immunized vs non immunized rats” value was “significantly increased” and the “PBMC cytotoxic activity against DHD-K12 after immunization” value is “high cytotoxic activity”.
